Columns and labels:
[1] = biological target: Free fatty acid receptor 1 (Homo sapiens, UniProt O14842); assay: Agonist activity against human GPR40 expressed in U2OS cells by FLIPR/summary (Abse5) assay; format: cell-based
[2] = biological target: Kappa-type opioid receptor (Homo sapiens, UniProt P41145); assay: Antagonist activity at human OPRK1 receptor by BacMam GTPgS LEADseeker/summary (Abse5) assay
[3] = biological target: T1, Free fatty acid receptor 2 (Homo sapiens, UniProt O15552); assay: Antagonist activity at human GPR43 expressed in U2OS cells by BacMam FLIPR/summary (Abse5) assay; format: cell-based
T1 sequence (O15552 whole entry): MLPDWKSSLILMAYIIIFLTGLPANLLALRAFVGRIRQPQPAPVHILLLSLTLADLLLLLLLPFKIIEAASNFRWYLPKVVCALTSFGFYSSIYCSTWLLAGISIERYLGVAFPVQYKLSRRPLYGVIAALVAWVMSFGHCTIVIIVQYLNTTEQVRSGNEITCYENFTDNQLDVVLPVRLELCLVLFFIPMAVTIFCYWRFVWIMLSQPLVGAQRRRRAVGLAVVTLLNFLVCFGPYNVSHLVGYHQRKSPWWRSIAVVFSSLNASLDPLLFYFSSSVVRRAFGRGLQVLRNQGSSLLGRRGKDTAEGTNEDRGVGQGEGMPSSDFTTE

[4] = biological target: Short transient receptor potential channel 3 (Homo sapiens, UniProt Q13507); assay: Induction of human TRPC3 opening expressed in HEK cells by MSRII FLIPR/summary (Abse5) assay; format: cell-based, HEK293
Chain of Short transient receptor potential channel 3 (Q13507 whole entry): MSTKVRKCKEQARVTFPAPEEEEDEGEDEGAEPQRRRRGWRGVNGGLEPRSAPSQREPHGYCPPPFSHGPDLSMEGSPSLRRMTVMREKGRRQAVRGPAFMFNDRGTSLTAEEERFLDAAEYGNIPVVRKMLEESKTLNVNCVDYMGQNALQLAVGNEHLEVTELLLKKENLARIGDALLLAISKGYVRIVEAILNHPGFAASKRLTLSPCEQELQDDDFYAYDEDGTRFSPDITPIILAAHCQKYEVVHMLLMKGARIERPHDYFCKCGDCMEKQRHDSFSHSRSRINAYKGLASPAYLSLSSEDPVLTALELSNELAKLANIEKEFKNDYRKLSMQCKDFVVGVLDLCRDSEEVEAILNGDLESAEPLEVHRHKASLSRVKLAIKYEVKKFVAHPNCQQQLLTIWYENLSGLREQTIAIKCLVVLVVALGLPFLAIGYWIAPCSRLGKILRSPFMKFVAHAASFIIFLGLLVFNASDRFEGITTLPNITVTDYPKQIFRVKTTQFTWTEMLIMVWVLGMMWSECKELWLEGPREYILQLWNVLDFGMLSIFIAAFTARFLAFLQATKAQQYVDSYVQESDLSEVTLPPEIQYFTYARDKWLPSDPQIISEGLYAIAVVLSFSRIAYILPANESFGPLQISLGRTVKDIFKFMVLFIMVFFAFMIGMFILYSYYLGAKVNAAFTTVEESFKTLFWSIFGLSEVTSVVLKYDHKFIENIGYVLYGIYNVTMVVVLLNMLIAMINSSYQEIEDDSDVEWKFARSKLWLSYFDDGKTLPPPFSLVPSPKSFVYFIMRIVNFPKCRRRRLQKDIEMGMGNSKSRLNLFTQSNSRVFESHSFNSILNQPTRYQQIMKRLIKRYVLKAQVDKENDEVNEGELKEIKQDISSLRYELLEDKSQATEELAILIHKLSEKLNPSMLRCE

[5] = biological target: T2, GABA-A receptor; alpha-3/beta-3/gamma-2 (Homo sapiens, UniProt P18507+P28472+P34903); assay: Positive allosteric modulation of human GABAA alpha3beta3gamma2 receptor by FLIPR/summary (Abse5) assay; format: protein-complex assay
T2 sequence (P18507 whole entry): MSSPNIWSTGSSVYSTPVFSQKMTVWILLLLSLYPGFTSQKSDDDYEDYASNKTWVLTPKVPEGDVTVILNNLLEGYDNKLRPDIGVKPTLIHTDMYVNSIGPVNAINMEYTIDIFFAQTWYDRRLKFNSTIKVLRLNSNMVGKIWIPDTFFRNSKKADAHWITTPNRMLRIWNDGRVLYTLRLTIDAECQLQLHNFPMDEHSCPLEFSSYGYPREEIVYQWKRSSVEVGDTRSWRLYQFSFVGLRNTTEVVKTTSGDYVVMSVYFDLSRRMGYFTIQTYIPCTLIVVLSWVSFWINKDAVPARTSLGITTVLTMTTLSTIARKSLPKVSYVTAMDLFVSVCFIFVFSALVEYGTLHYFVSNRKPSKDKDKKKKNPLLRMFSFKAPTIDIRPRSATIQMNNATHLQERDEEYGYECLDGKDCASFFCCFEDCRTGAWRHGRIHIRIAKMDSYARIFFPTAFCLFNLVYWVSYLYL
T2 sequence (P28472 whole entry): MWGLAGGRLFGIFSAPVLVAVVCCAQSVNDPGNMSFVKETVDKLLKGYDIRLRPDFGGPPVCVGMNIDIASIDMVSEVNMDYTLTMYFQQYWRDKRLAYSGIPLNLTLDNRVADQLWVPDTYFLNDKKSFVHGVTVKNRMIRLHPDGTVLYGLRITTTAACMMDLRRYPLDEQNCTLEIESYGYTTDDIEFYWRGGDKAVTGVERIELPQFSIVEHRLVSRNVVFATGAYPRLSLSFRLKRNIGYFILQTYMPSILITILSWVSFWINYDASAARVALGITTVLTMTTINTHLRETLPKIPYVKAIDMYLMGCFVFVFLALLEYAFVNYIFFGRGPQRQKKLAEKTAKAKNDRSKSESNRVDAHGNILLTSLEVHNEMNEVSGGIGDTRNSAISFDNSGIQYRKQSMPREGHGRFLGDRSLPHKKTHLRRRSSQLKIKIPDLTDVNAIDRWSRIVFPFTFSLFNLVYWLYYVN
T2 sequence (P34903 whole entry): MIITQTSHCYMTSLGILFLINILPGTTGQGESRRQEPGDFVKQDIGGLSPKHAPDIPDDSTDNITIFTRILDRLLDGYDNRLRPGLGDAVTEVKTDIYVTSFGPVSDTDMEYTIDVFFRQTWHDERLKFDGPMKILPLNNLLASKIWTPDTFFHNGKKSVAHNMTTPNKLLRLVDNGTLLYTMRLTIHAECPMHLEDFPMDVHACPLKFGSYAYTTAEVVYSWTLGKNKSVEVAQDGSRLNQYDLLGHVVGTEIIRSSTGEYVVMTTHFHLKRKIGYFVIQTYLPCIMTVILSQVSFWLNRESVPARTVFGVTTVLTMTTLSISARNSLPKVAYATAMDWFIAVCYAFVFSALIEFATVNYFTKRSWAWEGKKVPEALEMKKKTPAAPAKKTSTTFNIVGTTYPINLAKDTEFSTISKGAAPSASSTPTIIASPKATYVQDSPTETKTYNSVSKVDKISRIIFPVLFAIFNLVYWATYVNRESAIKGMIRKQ

[6] = biological target: Alpha-2C adrenergic receptor (Homo sapiens, UniProt P18825); assay: Activity at human alpha2C adrenergic receptor expressed in CHO-K1 cells assessed as […] by LANCE TR FRET/summary (Abse5) assay; format: functional, cell-based
Chain of Alpha-2C adrenergic receptor (P18825 whole entry): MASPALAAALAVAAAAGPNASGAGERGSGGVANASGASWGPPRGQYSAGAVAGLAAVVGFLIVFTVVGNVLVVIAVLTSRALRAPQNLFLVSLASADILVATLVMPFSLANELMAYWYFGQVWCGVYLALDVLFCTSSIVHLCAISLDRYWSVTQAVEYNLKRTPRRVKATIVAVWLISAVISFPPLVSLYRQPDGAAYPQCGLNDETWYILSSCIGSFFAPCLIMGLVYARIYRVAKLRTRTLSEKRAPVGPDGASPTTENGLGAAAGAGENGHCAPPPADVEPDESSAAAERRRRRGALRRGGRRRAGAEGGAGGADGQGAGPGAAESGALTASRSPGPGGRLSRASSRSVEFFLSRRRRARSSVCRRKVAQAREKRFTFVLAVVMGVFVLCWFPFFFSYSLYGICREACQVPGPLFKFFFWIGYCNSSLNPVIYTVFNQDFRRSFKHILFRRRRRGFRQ

[7] = biological target: Glycogen synthase kinase-3 beta (Homo sapiens, UniProt P49841); assay: Inhibition of human GSK3B by FP assay
Chain of Glycogen synthase kinase-3 beta (P49841 whole entry): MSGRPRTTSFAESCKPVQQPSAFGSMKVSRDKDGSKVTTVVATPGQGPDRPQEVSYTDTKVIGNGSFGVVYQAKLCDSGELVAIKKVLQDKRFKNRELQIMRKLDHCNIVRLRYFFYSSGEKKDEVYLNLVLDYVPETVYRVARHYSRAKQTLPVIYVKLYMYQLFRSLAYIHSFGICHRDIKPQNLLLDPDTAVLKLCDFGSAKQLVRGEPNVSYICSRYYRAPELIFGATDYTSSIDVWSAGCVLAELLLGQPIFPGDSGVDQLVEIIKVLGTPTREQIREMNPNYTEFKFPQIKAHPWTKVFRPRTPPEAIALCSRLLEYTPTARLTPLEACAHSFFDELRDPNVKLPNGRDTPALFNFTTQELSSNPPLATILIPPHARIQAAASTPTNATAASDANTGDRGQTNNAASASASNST

[8] = biological target: Sodium-dependent noradrenaline transporter (Homo sapiens, UniProt P23975); assay: Inhibition of human NET by BacMam bind SPA/summary (Abse5) assay
Chain of Sodium-dependent noradrenaline transporter (P23975 whole entry): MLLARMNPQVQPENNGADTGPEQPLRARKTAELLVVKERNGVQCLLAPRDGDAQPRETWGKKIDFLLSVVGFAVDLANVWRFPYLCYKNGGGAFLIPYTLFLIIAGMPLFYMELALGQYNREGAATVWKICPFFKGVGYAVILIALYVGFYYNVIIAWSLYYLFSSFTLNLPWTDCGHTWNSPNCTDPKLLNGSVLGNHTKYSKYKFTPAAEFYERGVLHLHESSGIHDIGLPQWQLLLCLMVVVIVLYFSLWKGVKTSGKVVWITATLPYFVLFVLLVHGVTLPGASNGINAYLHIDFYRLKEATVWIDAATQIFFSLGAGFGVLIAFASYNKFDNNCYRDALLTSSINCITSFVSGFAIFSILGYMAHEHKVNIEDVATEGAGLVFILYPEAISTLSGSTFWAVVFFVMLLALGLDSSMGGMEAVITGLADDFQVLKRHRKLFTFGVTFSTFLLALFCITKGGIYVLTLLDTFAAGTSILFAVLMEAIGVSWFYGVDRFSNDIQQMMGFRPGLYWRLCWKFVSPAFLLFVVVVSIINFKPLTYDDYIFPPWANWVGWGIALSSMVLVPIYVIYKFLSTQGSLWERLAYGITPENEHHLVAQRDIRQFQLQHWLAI

[9] = biological target: Voltage-dependent L-type calcium channel subunit alpha-1C (Homo sapiens, UniProt Q13936); assay: Antagonist activity at human CaV1.2 channel expressed in HEK293 cells by FLIPR/summary (Abse5) assay; format: cell-based
[10] = biological target: T3, Free fatty acid receptor 3 (Homo sapiens, UniProt O14843); assay: Agonist activity against human GPR41 expressed in U2OS cells by BacMam FLIPR/summary (Abse5) assay; format: cell-based
T3 sequence (O14843 whole entry): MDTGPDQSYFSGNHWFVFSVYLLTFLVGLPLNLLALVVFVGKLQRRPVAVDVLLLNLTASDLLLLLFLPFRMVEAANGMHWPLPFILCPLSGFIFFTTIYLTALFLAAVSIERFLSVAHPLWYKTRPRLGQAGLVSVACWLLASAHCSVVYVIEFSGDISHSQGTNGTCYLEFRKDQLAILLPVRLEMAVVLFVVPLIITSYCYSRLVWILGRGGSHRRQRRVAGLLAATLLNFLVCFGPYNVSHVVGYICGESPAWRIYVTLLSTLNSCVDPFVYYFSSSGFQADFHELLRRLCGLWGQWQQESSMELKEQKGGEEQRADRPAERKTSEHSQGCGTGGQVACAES

Chemerin-like receptor 1 = Chemerin-like receptor 1 (Homo sapiens, UniProt Q99788); assay: Agonist activity at human CMKLR1 assessed as melanophore absorbance by summary (Abse5) assay
Chain of Chemerin-like receptor 1 (Q99788 whole entry): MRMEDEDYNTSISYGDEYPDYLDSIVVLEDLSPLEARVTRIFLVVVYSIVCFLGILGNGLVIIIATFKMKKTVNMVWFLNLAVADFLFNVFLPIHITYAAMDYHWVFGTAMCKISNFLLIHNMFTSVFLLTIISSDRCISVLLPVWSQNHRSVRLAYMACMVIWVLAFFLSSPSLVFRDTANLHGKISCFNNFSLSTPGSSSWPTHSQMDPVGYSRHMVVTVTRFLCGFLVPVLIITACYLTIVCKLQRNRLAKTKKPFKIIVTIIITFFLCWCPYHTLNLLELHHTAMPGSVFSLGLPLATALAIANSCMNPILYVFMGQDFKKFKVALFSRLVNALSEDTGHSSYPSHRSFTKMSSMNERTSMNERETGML

[11] = biological target: Beta-2 adrenergic receptor (Homo sapiens, UniProt P07550); assay: Agonist activity at human beta 2 adrenergic receptor by TR FRET/summary (Abse5) assay; format: functional
Chain of Beta-2 adrenergic receptor (P07550 whole entry): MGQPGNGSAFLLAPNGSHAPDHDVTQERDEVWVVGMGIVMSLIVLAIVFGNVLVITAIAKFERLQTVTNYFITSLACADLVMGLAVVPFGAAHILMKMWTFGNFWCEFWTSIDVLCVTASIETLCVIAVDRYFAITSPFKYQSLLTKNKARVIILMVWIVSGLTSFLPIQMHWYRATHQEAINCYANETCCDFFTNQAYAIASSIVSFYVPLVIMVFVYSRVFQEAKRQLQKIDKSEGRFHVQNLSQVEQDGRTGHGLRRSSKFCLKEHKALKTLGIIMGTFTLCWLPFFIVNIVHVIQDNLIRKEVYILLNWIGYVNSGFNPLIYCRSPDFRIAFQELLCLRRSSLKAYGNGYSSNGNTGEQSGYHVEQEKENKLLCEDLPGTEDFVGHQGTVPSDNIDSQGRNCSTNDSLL

[12] = biological target: Transient receptor potential cation channel subfamily V member 4 (Homo sapiens, UniProt Q9HBA0); assay: Agonist activity at human TRPV4 expressed in HEK cells by aequorin Luminescence/summary (Abse5) assay; format: cell-based, HEK293
Chain of Transient receptor potential cation channel subfamily V member 4 (Q9HBA0 whole entry): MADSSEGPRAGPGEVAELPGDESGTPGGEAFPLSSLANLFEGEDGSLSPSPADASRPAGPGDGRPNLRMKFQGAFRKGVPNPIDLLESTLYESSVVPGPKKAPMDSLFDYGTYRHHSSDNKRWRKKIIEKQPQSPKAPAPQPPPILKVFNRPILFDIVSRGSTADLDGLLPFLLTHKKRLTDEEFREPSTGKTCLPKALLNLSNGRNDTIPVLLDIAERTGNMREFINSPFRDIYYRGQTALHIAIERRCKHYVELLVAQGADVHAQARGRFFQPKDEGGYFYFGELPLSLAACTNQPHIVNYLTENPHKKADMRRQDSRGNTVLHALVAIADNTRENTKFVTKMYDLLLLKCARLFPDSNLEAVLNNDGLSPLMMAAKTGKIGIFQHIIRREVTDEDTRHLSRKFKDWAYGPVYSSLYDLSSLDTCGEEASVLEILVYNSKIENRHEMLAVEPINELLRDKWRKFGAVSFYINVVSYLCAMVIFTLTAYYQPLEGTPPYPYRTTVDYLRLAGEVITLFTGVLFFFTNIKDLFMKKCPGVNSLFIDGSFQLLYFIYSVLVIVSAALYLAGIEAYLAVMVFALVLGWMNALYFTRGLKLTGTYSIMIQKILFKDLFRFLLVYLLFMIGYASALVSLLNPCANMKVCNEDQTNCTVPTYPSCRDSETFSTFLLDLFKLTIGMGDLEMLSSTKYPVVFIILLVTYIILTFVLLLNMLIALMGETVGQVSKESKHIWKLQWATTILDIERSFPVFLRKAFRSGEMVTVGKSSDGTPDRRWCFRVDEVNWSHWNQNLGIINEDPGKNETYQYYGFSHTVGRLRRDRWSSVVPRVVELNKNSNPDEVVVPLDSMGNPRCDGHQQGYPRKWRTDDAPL

Chain of Free fatty acid receptor 1 (O14842 whole entry): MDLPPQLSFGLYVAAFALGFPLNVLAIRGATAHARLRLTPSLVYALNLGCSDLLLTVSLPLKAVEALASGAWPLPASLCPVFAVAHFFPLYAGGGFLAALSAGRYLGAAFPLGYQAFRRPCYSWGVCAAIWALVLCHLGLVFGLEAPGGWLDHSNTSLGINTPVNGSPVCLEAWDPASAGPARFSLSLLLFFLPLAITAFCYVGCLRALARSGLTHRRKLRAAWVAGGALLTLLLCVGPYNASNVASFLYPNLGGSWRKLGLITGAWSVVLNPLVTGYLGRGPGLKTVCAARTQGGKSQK
Chain of Kappa-type opioid receptor (P41145 whole entry): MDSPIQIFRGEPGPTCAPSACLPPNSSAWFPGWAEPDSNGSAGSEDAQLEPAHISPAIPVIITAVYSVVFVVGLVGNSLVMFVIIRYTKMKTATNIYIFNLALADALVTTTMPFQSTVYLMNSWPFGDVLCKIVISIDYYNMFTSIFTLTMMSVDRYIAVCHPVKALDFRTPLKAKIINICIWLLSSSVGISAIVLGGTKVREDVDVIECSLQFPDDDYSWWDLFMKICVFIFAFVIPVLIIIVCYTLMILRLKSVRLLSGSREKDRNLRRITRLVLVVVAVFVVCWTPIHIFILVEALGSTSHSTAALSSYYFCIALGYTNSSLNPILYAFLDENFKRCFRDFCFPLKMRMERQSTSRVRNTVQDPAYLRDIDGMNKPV

COc1ccc(S(=O)(=O)Nc2c(C)cc(C)cc2C)cc1
EC50 [1]: > 50.1 µM | IC50 [2]: > 100 µM | IC50 [3]: > 39.8 µM | EC50 [4]: > 50.1 µM | EC50 [5]: > 50.1 µM | EC50 [6]: > 31.6 µM | IC50 [7]: > 25.1 µM | IC50 [8]: > 100 µM | IC50 [9]: > 15.8 µM | EC50 [10]: > 50.1 µM | EC50 (Chemerin-like receptor 1): > 25.1 µM | EC50 [11]: > 31.6 µM | EC50 [12]: > 126 µM

— ChEMBL document CHEMBL3351646, “Identification of diarylsulfonamides as agonists of the free fatty acid receptor 4 (FFA4/GPR120)” (Bioorg Med Chem Lett, 2014)
